Assay results published in ChEMBL document CHEMBL1137606, “Synthesis of novel phytosphingosine derivatives and their preliminary biological evaluation for enhancing radiation therapy” (2007).
Activity calls are given as the source filed them. No cut-off for these calls is given here.

Tests used:
Jurkat [1] = test: Cytotoxicity against gamma irradiated human Jurkat cells at 10 uM after 30 mins relative to control; assay type: functional
Jurkat [2] = test: Cytotoxicity against human Jurkat cells at 10 uM after 30 mins; assay type: functional, cell-based

Compound: CCCCCCCCCCCCCC[C@@H](O)[C@@H](O)[C@@H](N)CO
- Activity (Jurkat [1]): inactive
- Activity (Jurkat [2]): Active

Compound: CCCCCCCCCCCCCC[C@@H](O)[C@@H](O)[C@H](CO)NC(=O)COCc1ccccc1
- Activity (Jurkat [1]): 11%

Compound: CCCCCCCCCCCCCC[C@@H](O)[C@@H](O)[C@H](CO)NC(=O)CCCC(=O)OCC
- Activity (Jurkat [1]): 19%

Compound: CCCCCCCCCCCCCC[C@@H](O)[C@@H](O)[C@H](CO)NC(=O)CCC(=O)OCC
- Activity (Jurkat [1]): 12%

Compound: CCCCCCCCCCCCCC[C@@H](O)[C@@H](O)[C@H](CO)NC(=O)CCCCCCCCC(=O)OC
- Activity (Jurkat [1]): inactive
- Activity (Jurkat [2]): Active
